# Measured values as given in patent US11072598B2, “Somatostatin modulators and uses thereof” (CRINETICS PHARMACEUTICALS, INC., priority 2017, dated 2021).
# Biological target: T1, human somatostatin receptor subtype 2 (Homo sapiens, UniProt P30874)
# T1 construct: expressed in transfected cells
# Assay: cAMP functional assay for SSTR2 agonists
# Format: cell-based
# Conditions: inhibition of cAMP activities via human SST2 receptor (SSTR2), CHO-K1 cells; read-out: EC50
# Procedure, shortened: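 CHO-K1 cells stably expressing human SSTR2 were treated for 20 min at 37 °C with compound plus NKH477 (added as 1.6 μM) in HBSS with IBMX. Intracellular cAMP was measured by HTRF against a standard curve. EC50 values came from concentration-response curves.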
# T1 sequence (P30874 whole entry): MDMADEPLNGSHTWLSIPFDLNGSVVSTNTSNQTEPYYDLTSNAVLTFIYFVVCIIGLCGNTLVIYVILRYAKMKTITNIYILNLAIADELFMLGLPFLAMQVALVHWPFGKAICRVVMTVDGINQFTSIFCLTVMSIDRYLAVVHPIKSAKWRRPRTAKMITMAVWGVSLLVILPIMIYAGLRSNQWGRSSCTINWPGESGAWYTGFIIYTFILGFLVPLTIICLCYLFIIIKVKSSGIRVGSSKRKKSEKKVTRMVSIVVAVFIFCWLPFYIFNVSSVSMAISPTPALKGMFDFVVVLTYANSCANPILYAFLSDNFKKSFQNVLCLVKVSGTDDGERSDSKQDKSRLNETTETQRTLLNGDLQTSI
row,EC50 [nM],SMILES
1,< 10,"Cc1cc(F)cc(-c2cnc(N)c(-c3nc4cc(F)c(F)cc4[nH]3)c2N2CCC(N)CC2)c1 [Compound 1-3, 4-(4-aminopiperidin-1-yl)-3-(5,6-difluoro-1H-1,3-benzodiazol-2-yl)-5-(3-fluoro-5-methylphenyl)pyridin-2-amine]"
2,< 10,"CCn1c(-c2c(N)ncc(-c3cc(C)cc(F)c3)c2N2CCC(N)CC2)nc2cc(F)c(F)cc21 [Compound 1-5, 4-(4-aminopiperidin-1-yl)-3-(1-ethyl-5,6-difluoro-1H-1,3-benzodiazol-2-yl)-5-(3-fluoro-5-methylphenyl)pyridin-2-amine]"
3,< 10,"COc1ccc2[nH]c(-c3c(N)ncc(-c4cc(C)cc(F)c4)c3N3CCC(N)CC3)nc2c1 [Compound 1-8, 4-(4-aminopiperidin-1-yl)-5-(3-fluoro-5-methylphenyl)-3-(5-methoxy-1H-1,3-benzodiazol-2-yl)pyridin-2-amine]"
4,< 10,"Cc1cc(F)cc(-c2cnc(N)c(-c3nc4cccc(C)c4[nH]3)c2N2CCC(N)CC2)c1 [Compound 1-10, 4-(4-aminopiperidin-1-yl)-5-(3-fluoro-5-methylphenyl)-3-(7-methyl-1H-1,3-benzodiazol-2-yl)pyridin-2-amine]"
5,< 10,"Cc1cc(F)cc(-c2cnnc(-c3nc4cc(F)ccc4[nH]3)c2N2CCC(N)CC2)c1 [Compound 3-13, 1-[3-(5-fluoro-1H-1,3-benzodiazol-2-yl)-5-(3-fluoro-5-methylphenyl)pyridazin-4-yl]piperidin-4-amine]"
6,< 10,"Cc1cc(F)cc(-c2cnnc(-c3[nH]c4cc(Cl)ccc4c3Cl)c2N2CCC(N)CC2)c1 [Compound 3-14, 1-[3-(3,6-dichloro-1H-indol-2-yl)-5-(3-fluoro-5-methylphenyl)pyridazin-4-yl]piperidin-4-amine]"
7,> 100,"Cc1cc(F)cc(-c2cnnc(-c3cc4ccc(-c5nn[nH]n5)cc4[nH]3)c2N2CCC(N)CC2)c1 [Compound 3-15, 1-[5-(3-fluoro-5-methylphenyl)-3-[6-(2H-1,2,3,4-tetrazol-5-yl)-1H-indol-2-yl]pyridazin-4-yl]piperidin-4-amine]"
8,< 10,"Cc1cc(F)cc(-c2cnnc(-c3cc4ccc(C)cc4[nH]3)c2N2CCC(N)CC2)c1 [Compound 3-16, 1-[5-(3-fluoro-5-methylphenyl)-3-(6-methyl-1H-indol-2-yl)pyridazin-4-yl]piperidin-4-amine]"
9,< 10,"Cc1cc(F)cc(-c2cnnc(-c3cc4cc(C#N)ccc4[nH]3)c2N2CCC(N)CC2)c1 [Compound 3-17, 2-[4-(4-aminopiperidin-1-yl)-5-(3-fluoro-5-methylphenyl)pyridazin-3-yl]-1H-indole-5-carbonitrile]"
10,< 10,"COC(=O)c1ccc2cc(-c3nncc(-c4cc(C)cc(F)c4)c3N3CCC(N)CC3)[nH]c2c1 [Compound 3-18, methyl 2-[4-(4-aminopiperidin-1-yl)-5-(3-fluoro-5-methylphenyl)pyridazin-3-yl]-1H-indole-6-carboxylate]"
11,< 10,"Cc1cc(F)cc(-c2cnnc(-c3cc4ccc(C(N)=O)cc4[nH]3)c2N2CCC(N)CC2)c1 [Compound 3-19, 2-[4-(4-aminopiperidin-1-yl)-5-(3-fluoro-5-methylphenyl)pyridazin-3-yl]-1H-indole-6-carboxamide]"
12,10 to 100,"CONC(=O)c1ccc2cc(-c3nncc(-c4cc(C)cc(F)c4)c3N3CCC(N)CC3)[nH]c2c1 [Compound 3-20, 2-[4-(4-aminopiperidin-1-yl)-5-(3-fluoro-5-methylphenyl)pyridazin-3-yl]-N-methoxy-1H-indole-6-carboxamide]"
13,< 10,"COc1ccc2c(Cl)c(-c3nncc(-c4cc(C)cc(F)c4)c3N3CCC(N)CC3)[nH]c2c1 [Compound 3-21, 1-[3-(3-chloro-6-methoxy-1H-indol-2-yl)-5-(3-fluoro-5-methylphenyl)pyridazin-4-yl]piperidin-4-amine]"
14,< 10,"Cc1cc(F)cc(-c2cnnc(-c3nc4cc(C#N)ccc4[nH]3)c2N2CCC(N)CC2)c1 [Compound 3-22, 2-[4-(4-aminopiperidin-1-yl)-5-(3-fluoro-5-methylphenyl)pyridazin-3-yl]-1H-1,3-benzodiazole-5-carbonitrile]"
15,< 10,"Cc1cc(F)cc(-c2cnnc(-c3cc4cccc(C#N)c4[nH]3)c2N2CCC(N)CC2)c1 [Compound 3-23, 2-[4-(4-aminopiperidin-1-yl)-5-(3-fluoro-5-methylphenyl)pyridazin-3-yl]-1H-indole-7-carbonitrile]"
16,< 10,"Cc1cc(F)cc(-c2cnnc(-c3[nH]c4cc(C#N)ccc4c3Cl)c2N2CCC(N)CC2)c1 [Compound 3-24, 2-[4-(4-aminopiperidin-1-yl)-5-(3-fluoro-5-methylphenyl)pyridazin-3-yl]-3-chloro-1H-indole-6-carbonitrile]"
17,< 10,"COc1ccc2c(C#N)c(-c3nncc(-c4cc(C)cc(F)c4)c3N3CCC(N)CC3)[nH]c2c1 [Compound 3-25, 2-[4-(4-aminopiperidin-1-yl)-5-(3-fluoro-5-methylphenyl)pyridazin-3-yl]-6-methoxy-1H-indole-3-carbonitrile]"
18,< 10,"Cc1cc(F)cc(-c2cnnc(-c3[nH]c4cc(C#N)ccc4c3C#N)c2N2CCC(N)CC2)c1 [Compound 3-26, 2-[4-(4-aminopiperidin-1-yl)-5-(3-fluoro-5-methylphenyl)pyridazin-3-yl]-1H-indole-3,6-dicarbonitrile]"
19,< 10,"CNc1ncc(-c2cc(C)cc(F)c2)c(N2CCC(NC)CC2)c1-c1nc2cc(Cl)ccc2[nH]1 [Compound 4-1, 3-(5-chloro-1H-1,3-benzodiazol-2-yl)-5-(3-fluoro-5-methylphenyl)-N-methyl-4-[4-(methylamino)piperidin-1-yl]pyridin-2-amine]"
20,< 10,"CNC1CCN(c2c(-c3cc(C)cc(F)c3)cnc(N)c2-c2nc3ccc(C#N)cc3[nH]2)CC1 [Compound 4-2, 2-[2-amino-5-(3-fluoro-5-methylphenyl)-4-[4-(methylamino)piperidin-1-yl]pyridin-3-yl]-1H-1,3-benzodiazole-6-carbonitrile]"
21,< 10,"CNC1CCN(c2c(-c3cc(C)cc(F)c3)cnc(N)c2-c2nc3cc(C#N)cc(F)c3[nH]2)CC1 [Compound 4-3, 2-[2-amino-5-(3-fluoro-5-methylphenyl)-4-[4-(methylamino)piperidin-1-yl]pyridin-3-yl]-7-fluoro-1H-1,3-benzodiazole-5-carbonitrile]"
22,< 10,"COc1cccc2nc(-c3c(N(C)C)ncc(-c4cc(C)cc(F)c4)c3N3CCC(N)CC3)[nH]c12 [Compound 4-4, 4-(4-aminopiperidin-1-yl)-5-(3-fluoro-5-methylphenyl)-3-(7-methoxy-1H-1,3-benzodiazol-2-yl)-N,N-dimethylpyridin-2-amine]"
23,< 10,"Cc1cc(F)cc(-c2cnc(N(C)C)c(-c3nc4cc(F)cc(F)c4[nH]3)c2N2CCC(N)CC2)c1 [Compound 4-5, 4-(4-aminopiperidin-1-yl)-3-(5,7-difluoro-1H-1,3-benzodiazol-2-yl)-5-(3-fluoro-5-methylphenyl)-N,N-dimethylpyridin-2-amine]"
24,< 10,"COc1cc(F)cc2nc(-c3c(N4CC(F)C4)ncc(-c4cccc(F)c4)c3N3CCC(N)CC3)[nH]c12 [Compound 4-9, 1-[3-(5-fluoro-7-methoxy-1H-1,3-benzodiazol-2-yl)-2-(3-fluoroazetidin-1-yl)-5-(3-fluorophenyl)pyridin-4-yl]piperidin-4-amine]"
25,< 10,"CNC1CCN(c2c(-c3cc(C)cc(F)c3)cnc(N)c2-c2nc3cc(F)cc(OC)c3[nH]2)CC1 [Compound 4-10, 3-(5-fluoro-7-methoxy-1H-1,3-benzodiazol-2-yl)-5-(3-fluoro-5-methylphenyl)-4-[4-(methylamino)piperidin-1-yl]pyridin-2-amine]"
26,< 10,"Cc1cc(F)cc(-c2cnc(N3CCNCC3)c(-c3nc4cc(Cl)ccc4[nH]3)c2N2CCC(N)CC2)c1 [Compound 4-11, 1-[3-(5-chloro-1H-1,3-benzodiazol-2-yl)-5-(3-fluoro-5-methylphenyl)-2-(piperazin-1-yl)pyridin-4-yl]piperidin-4-amine]"

# Biological target: T2, hSSTR4 (Homo sapiens, UniProt P31391)
# T2 construct: expressed in transfected cells
# T2 sequence (P31391 whole entry): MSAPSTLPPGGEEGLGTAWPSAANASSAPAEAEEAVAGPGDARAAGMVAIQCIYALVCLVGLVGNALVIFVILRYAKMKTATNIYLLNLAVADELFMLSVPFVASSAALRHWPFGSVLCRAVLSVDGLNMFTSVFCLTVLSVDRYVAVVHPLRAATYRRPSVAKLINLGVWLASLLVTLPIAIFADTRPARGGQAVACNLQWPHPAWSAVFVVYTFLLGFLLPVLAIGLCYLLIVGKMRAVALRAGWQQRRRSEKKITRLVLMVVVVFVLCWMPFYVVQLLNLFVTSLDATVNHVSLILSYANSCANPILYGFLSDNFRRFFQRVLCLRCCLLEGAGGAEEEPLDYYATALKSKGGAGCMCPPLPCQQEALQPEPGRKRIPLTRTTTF
# Assay: inhibition of cAMP via hSSTR4
# Format: cell-based
# Conditions: selectivity for inhibition of cAMP via hSSTR2 vs. hSSTR4
# From the text: General overview: All five SSTR subtypes are Gi coupled G-protein coupled receptors (GPCRs) that lead to decreases in intracellular cyclic AMP (cAMP) when activated by an agonist. Therefore, measurement of intracellular cAMP levels can be used to assess whether compounds of the invention are agonists of SSTR subtypes (John Kelly, Troy Stevens, W. Joseph Thompson, and Roland Seifert, Current Protocols in Pharmacology, 2005, 2.2.1-2.2). One example of an intracellular cAMP assay is described below. cAMP assay protocol:
# Four days prior to the assay, 5,000 Chinese hamster ovary cells (CHO-K1, ATCC #CCL-61) stably expressing the human somatostatin receptor subtype 2 are plated in each well of a 96-well tissue culture-treated plate in Ham's F12 growth media (ThermoFisher #10-080-CM) supplemented with 10% donor bovine serum (Gemini Bio-Products #100-506), 100 U/mL penicillin; 100 ug/mL streptomycin; 2 mM L-glutamine (Gemini Bio-Products #400-110) and 0.2 mg/mL hygromycin B (GoldBio #31282-04-9). The cells are cultured at 37° C., 5% CO2 and 95% humidity. On the day of the assay, the media is aspirated and the cells are treated with 50 μL of 1.6 μM NKH477 (Sigma #N3290) plus various dilutions of compounds of the invention in assay buffer [1× Hank's Balanced Salt Solution (ThermoFisher #SH3058802), 0.5 mM HEPES pH 7.4, 0.1% bovine serum albumin, 0.2 mM 3-Isobutyl-1-methylxanthine (IBMX, VWR #200002-790)]. The cells are incubated for 20 minutes at 37° C. (the final concentration of the compounds of the invention are typically 0-10,000 nM). The cells are treated with 50 μL of lysis buffer (HRTF cAMP kit, Cisbio). The lysate is transferred to 384-well plates and cAMP detection and visualization antibodies are added and incubated for 1-24 hours at room temperature. The time-resolved fluorescent signal is read with a Tecan M1000Pro multiplate reader. The intracellular cAMP concentrations are calculated by regression to a standard curve and are plotted vs. the concentration of the compounds of the invention and the EC50 of the compounds are calculated using standard methods. All data manipluations are in GraphPad Prism v6.
row,hSST4/hSST2 (ratio),SMILES
1,b (between 15 and 50),"Cc1cc(F)cc(-c2cnc(N)c(-c3nc4cc(F)c(F)cc4[nH]3)c2N2CCC(N)CC2)c1 [Compound 1-3, 4-(4-aminopiperidin-1-yl)-3-(5,6-difluoro-1H-1,3-benzodiazol-2-yl)-5-(3-fluoro-5-methylphenyl)pyridin-2-amine]"
2,b (between 15 and 50),"CCn1c(-c2c(N)ncc(-c3cc(C)cc(F)c3)c2N2CCC(N)CC2)nc2cc(F)c(F)cc21 [Compound 1-5, 4-(4-aminopiperidin-1-yl)-3-(1-ethyl-5,6-difluoro-1H-1,3-benzodiazol-2-yl)-5-(3-fluoro-5-methylphenyl)pyridin-2-amine]"
3,b (between 15 and 50),"COc1ccc2[nH]c(-c3c(N)ncc(-c4cc(C)cc(F)c4)c3N3CCC(N)CC3)nc2c1 [Compound 1-8, 4-(4-aminopiperidin-1-yl)-5-(3-fluoro-5-methylphenyl)-3-(5-methoxy-1H-1,3-benzodiazol-2-yl)pyridin-2-amine]"
4,c (between 2.5 and 15),"Cc1cc(F)cc(-c2cnc(N)c(-c3nc4cccc(C)c4[nH]3)c2N2CCC(N)CC2)c1 [Compound 1-10, 4-(4-aminopiperidin-1-yl)-5-(3-fluoro-5-methylphenyl)-3-(7-methyl-1H-1,3-benzodiazol-2-yl)pyridin-2-amine]"
